Measurements published in ChEMBL document CHEMBL3885861, “Open TG-GATES”.
Counter-ions that a name gives are not always drawn.

Organism: Rattus norvegicus
Test: Open TG-GATES - Regimen: Single
Format: toxicity, organism-based, Sprague-Dawley
Parameters: regimen Single, gender Male, age 6 weeks
Conditions: in vivo, ip, 800 mg/kg, route intraperitoneal injection, dose level High; for APTT / Bas / Eos / Fbg / Hb / Ht / Lym / MCH / MCHC / MCV / Mono / Neu / PT / Plat / RBC / Ret / WBC: tissue Blood; for KIDNEY_L / KIDNEY_R / KIDNEY_TOTAL: tissue Kidney; for LIVER: tissue Liver; for A/G / ALP / ALT / AST / BUN / CRE / Ca / Cl / DBIL / GLC / IP / K / LDH / Na / PL / RALB / TBIL / TC / TG / TP / gamma-GTP: tissue Plasma

CCOC(=O)/C=C\C(=O)OCC [DIETHYL MALEATE]
TERMINAL_BW (3 h): 200.3 g | APTT (3 h): 17 s | Bas (3 h): 0% | Eos (3 h): 1.4% | Fbg (3 h): 195.6 mg/dL | Hb (3 h): 14.1 g/dL | Ht (3 h): 42.3% | Lym (3 h): 62.4% | MCH (3 h): 21.3 pg | MCHC (3 h): 33.4% | MCV (3 h): 63.9 fL | Mono (3 h): 7.8% | Neu (3 h): 28.4% | PT (3 h): 13.2 s | Plat (3 h): 123.8 x10_4/uL | RBC (3 h): 662.6 x10_4/ul | Ret (3 h): 9.9% | WBC (3 h): 59.8 x10_2/uL | KIDNEY_L (3 h): 0.9 g | KIDNEY_R (3 h): 0.9 g | KIDNEY_TOTAL (3 h): 1.8 g | LIVER (3 h): 7.9 g | A/G (3 h): 1.7 | ALP (3 h): 764.4 IU/L | ALT (3 h): 48.8 IU/L | AST (3 h): 96.2 IU/L | BUN (3 h): 19.2 mg/dL | CRE (3 h): 0.5 mg/dL | Ca (3 h): 10.7 mg/dL | Cl (3 h): 105.2 meq/L | DBIL (3 h): 0.01 mg/dL | GLC (3 h): 218.6 mg/dL | IP (3 h): 10.8 mg/dL | K (3 h): 5.2 meq/L | LDH (3 h): 209.4 IU/L | Na (3 h): 136 meq/L | PL (3 h): 101.8 mg/dL | RALB (3 h): 3.5 g/dL | TBIL (3 h): 0.5 mg/dL | TC (3 h): 59.4 mg/dL | TG (3 h): 20.2 mg/dL | TP (3 h): 5.5 g/dL | gamma-GTP (3 h): 1 IU/L | TERMINAL_BW (6 h): 195.6 g | APTT (6 h): 16.8 s | Bas (6 h): 0% | Eos (6 h): 0.8% | Fbg (6 h): 206.2 mg/dL | Hb (6 h): 14.2 g/dL | Ht (6 h): 42.4% | Lym (6 h): 71.8% | MCH (6 h): 22.1 pg | MCHC (6 h): 33.5% | MCV (6 h): 65.9 fL | Mono (6 h): 8.6% | Neu (6 h): 18.8% | PT (6 h): 12.2 s | Plat (6 h): 126 x10_4/uL | RBC (6 h): 644.2 x10_4/ul | Ret (6 h): 10.4% | WBC (6 h): 78.9 x10_2/uL | KIDNEY_L (6 h): 0.9 g | KIDNEY_R (6 h): 0.9 g | KIDNEY_TOTAL (6 h): 1.8 g | LIVER (6 h): 7.6 g | A/G (6 h): 2 | ALP (6 h): 784.8 IU/L | ALT (6 h): 53.2 IU/L | AST (6 h): 101 IU/L | BUN (6 h): 22 mg/dL | CRE (6 h): 0.5 mg/dL | Ca (6 h): 10.9 mg/dL | Cl (6 h): 105.6 meq/L | DBIL (6 h): 0.012 mg/dL | GLC (6 h): 204 mg/dL | IP (6 h): 10.2 mg/dL | K (6 h): 5.4 meq/L | LDH (6 h): 205 IU/L | Na (6 h): 136.2 meq/L | PL (6 h): 124.6 mg/dL | RALB (6 h): 3.7 g/dL | TBIL (6 h): 0.5 mg/dL | TC (6 h): 77.6 mg/dL | TG (6 h): 28.2 mg/dL | TP (6 h): 5.6 g/dL | gamma-GTP (6 h): 1 IU/L
